This assay relates to anti-HCV antibodies (HCV-positive sera). The assay is described as follows: ELISA detection of anti-HCV antibodies in HCV-positive sera with adsorbed peptides. In kind it is binding, human. Particulars: for reactivity towards HCV-positive sera: in words. The protocol: The reactivity of these three peptides towards the sera of individuals infected with the hepatitis C virus, termed (HCV) positive, was evaluated in an ELISA test according to the procedure described below.
Detection of anti-HCV Antibodies by ELISA
The wells of a microtiter plate of "NUNC MAXISORB™" trademark are saturated with 100 μl of a solution containing the peptide or a mixture of peptides (10 μg/ml) for 2 hours at 37° C. The plate is then emptied, then washed with a wash buffer containing 0.05% TWEEN™ 20(polysorbate 20). The wells are saturated with 100 μl of wash buffer supplemented with 10% goat serum (v/v), then incubated for 30 minutes at 37° C., then washed again as above. The sera to be analyzed are diluted to the appropriate dilution with saturation buffer. The incubation of the sera is 1 hour at 37° C. The wells are again washed. The solution of conjugate (goat IgG to human IgG labelled with peroxidase) at a dilution of 1/1000 in the saturation buffer is then added and the incubation lasts for 90 minutes at 37° C. After washing, the solution of orthophenylenediamine substrate is added. After 10 minutes, the reaction is stopped with 50 μl of H2 SO4 and the optical density is read at 492 nm. It should be noted that all the tests were carried out in duplicate.
For that, the different peptides are adsorbed on the microplates at a concentration of 10 μg/ml and the sera are used at 1/100 dilution.
The values obtained, which are collated in Table 1 below, correspond to the optical density (OD) multiplied by 10^3, at 492 nm.
For each serum the experiment was carried out in duplicate. The **** are values outside the upper scale.
The different peptides are absorbed onto microplates at a concentration of 10 μg/ml and the sera are used at the dilution stated.
The values obtained, which are collated in Table 2 below, correspond to the optical density at 492 nm. All the experiments were carried out in duplicate.
Each serum was, in a first instance, tested at the dilution 1/100.
The values given correspond to the optical density read at 492 nm multiplied by the factor 10^3.
For orientation: An ELISA detects its analyte on a solid surface through an enzyme-linked reagent.

As to “K22Y: peptide corresponding to the amino acid sequence 12 to 35 of the CORE protein (KRNTNRRPQDVKFPGGGQIVGGVY)”, the “optical density at 492 nm” value reads like this: (Table 4, serum A 8, 1/1000) 431 OD × 10^3; (Table 4, serum A 8, 1/10,000) 56 OD × 10^3; (Table 4, serum A 9, 1/100) 2152 OD × 10^3; (Table 4, serum A 9, 1/1000) 282 OD × 10^3; (Table 4, serum A 9, 1/10,000) 43 OD × 10^3; (Table 4, serum A 10, 1/100) 2114 OD × 10^3. The “optical density at 492 nm” value runs as follows: (Table 4, serum A 10, 1/1000) 207 OD × 10^3; (Table 4, serum A 10, 1/10,000) 26 OD × 10^3; (Table 4, serum A 11, 1/100) 1878 OD × 10^3; (Table 4, serum A 11, 1/1000) 212 OD × 10^3; (Table 4, serum A 11, 1/10,000) 31 OD × 10^3; (Table 4, serum A 12, 1/1000) 646 OD × 10^3. Further, the “optical density at 492 nm” value is, setting by setting: (Table 4, serum A 12, 1/10,000) 62 OD × 10^3; (Table 4, serum B 3, 1/100) 2033 OD × 10^3; (Table 4, serum P 1, 1/100) 435 OD × 10^3; (Table 4, serum P 2, 1/100) 666 OD × 10^3; (Table 4, serum P 3, 1/100) 1031 OD × 10^3; (Table 4, serum P 4, 1/1000) 1959 OD × 10^3. For the same substance, the “optical density at 492 nm” value stood at 300 OD × 10^3 (Table 4, serum P 4, 1/10,000); 394 OD × 10^3 (Table 4, serum P 5, 1/10,000); 1487 OD × 10^3 (Table 4, serum P 7, 1/10,000); 2257 OD × 10^3 (Table 4, serum P 8, 1/1000); 335 OD × 10^3 (Table 4, serum P 8, 1/10,000); 66 OD × 10^3 (Table 4, serum P 10, 1/100). In addition, the “optical density at 492 nm” value is, setting by setting: (Table 4, serum P 14, 1/10,000) 398 OD × 10^3; (Table 4, serum P 16, 1/1000) 610 OD × 10^3; (Table 4, serum P 16, 1/10,000) 75 OD × 10^3; (Table 4, serum P 17, 1/100) 1930 OD × 10^3; (Table 4, serum P 23, 1/100) 125 OD × 10^3; (Table 4, serum P 24, 1/100) 735 OD × 10^3. The “optical density at 492 nm” value (Table 4, serum P 29, 1/100) turned out to be 310 OD × 10^3 and the “optical density at 492 nm” value (Table 4, serum P 30, 1/100) came out at 1805 OD × 10^3.

Regarding “K32G: peptide corresponding to the amino acid sequence 12 to 45 of the CORE protein (KRNTNRRPQDVKFPGGGQIVGGVYLLPRRGPTLG)”, the “reactivity towards HCV-positive sera” value is “little or no difference is observed in reactivity”. The “optical density at 492 nm” value (Table 5, serum A8, 1/10,000) is reported as 666 OD × 10^3. Also, the “optical density at 492 nm” value (Table 5, serum A 9, 1/1000) is 1675 OD × 10^3. For the same substance, for the setting “Table 5, serum A 9, 1/10,000”, the “optical density at 492 nm” value is on record as 229 OD × 10^3. In addition, the “optical density at 492 nm” value (Table 5, serum A11, 1/1000) was found to be 2108 OD × 10^3. Further, the “optical density at 492 nm” value (Table 5, serum A11, 1/10,000) amounted to 343 OD × 10^3. Also, the “optical density at 492 nm” value (Table 5, serum A12, 1/10,000) came to 598 OD × 10^3. For the setting “Table 5, serum A13, 1/10,000”, the “optical density at 492 nm” value was 1247 OD × 10^3. Further, for the setting “Table 5, serum A14, 1/1000”, the “optical density at 492 nm” value is 998 OD × 10^3. In addition, the “optical density at 492 nm” value (Table 5, serum A14, 1/10,000) is listed as 103 OD × 10^3. Also, for the setting “Table 5, serum A15, 1/10,000”, the “optical density at 492 nm” value is reported as 715 OD × 10^3. In addition, the “optical density at 492 nm” value (Table 5, serum A19, 1/10,000) came to 594 OD × 10^3. For the same substance, the “optical density at 492 nm” value (Table 5, serum A21, 1/1000) came out at 993 OD × 10^3. The “optical density at 492 nm” value (Table 5, serum A21, 1/10,000) was 123 OD × 10^3. For the same substance, the “optical density at 492 nm” value (Table 5, serum A22, 1/1000) was 876 OD × 10^3. Besides, the “optical density at 492 nm” value (Table 5, serum A22, 1/10,000) amounted to 129 OD × 10^3. The “optical density at 492 nm” value (Table 5, serum A23, 1/10,000) was 774 OD × 10^3.

Consider “P27Y: peptide corresponding to the amino acid sequence 7 to 35 of the CORE protein (PQRKTKRNTNRRPQDVKFPGGGQIVGGVY)”, for which the “optical density at 492 nm” value reads like this: (Table 4, serum A 8, 1/1000) 1198 OD × 10^3; (Table 4, serum A 8, 1/10,000) 118 OD × 10^3; (Table 4, serum A 9, 1/1000) 1388 OD × 10^3; (Table 4, serum A 9, 1/10,000) 182 OD × 10^3; (Table 4, serum A 10, 1/100) 2308 OD × 10^3; (Table 4, serum A 10, 1/1000) 334 OD × 10^3. The “optical density at 492 nm” value by setting is: (Table 4, serum A 10, 1/10,000) 31 OD × 10^3; (Table 4, serum A 11, 1/100) 1937 OD × 10^3; (Table 4, serum A 11, 1/1000) 226 OD × 10^3; (Table 4, serum A 11, 1/10,000) 33 OD × 10^3; (Table 4, serum A 12, 1/10,000) 365 OD × 10^3; (Table 4, serum P 1, 1/100) 620 OD × 10^3. Further, the “optical density at 492 nm” value is 891 OD × 10^3 (Table 4, serum P 2, 1/100); 1470 OD × 10^3 (Table 4, serum P 3, 1/100); 2111 OD × 10^3 (Table 4, serum P 4, 1/1000); 324 OD × 10^3 (Table 4, serum P 4, 1/10,000); 856 OD × 10^3 (Table 4, serum P 5, 1/10,000); 1667 OD × 10^3 (Table 4, serum P 7, 1/10,000). For the same substance, the “optical density at 492 nm” value stood at 654 OD × 10^3 (Table 4, serum P 8, 1/10,000); 60 OD × 10^3 (Table 4, serum P 10, 1/100); 566 OD × 10^3 (Table 4, serum P 14, 1/10,000); 913 OD × 10^3 (Table 4, serum P 16, 1/1000); 104 OD × 10^3 (Table 4, serum P 16, 1/10,000); 2300 OD × 10^3 (Table 4, serum P 17, 1/100). For the same substance, the “optical density at 492 nm” value (Table 4, serum P 23, 1/100) turned out to be 138 OD × 10^3; the “optical density at 492 nm” value (Table 4, serum P 24, 1/100) is 1063 OD × 10^3; the “optical density at 492 nm” value (Table 4, serum P 29, 1/100) worked out at 347 OD × 10^3; the “optical density at 492 nm” value (Table 4, serum P 30, 1/100) was found to be 2274 OD × 10^3.

In the case of “P37G: peptide corresponding to the amino acid sequence 7 to 45 of the CORE protein (PQRKTKRNTNRRPQDVKFPGGGQIVGGVYLLPRRGPRLG)”, the “reactivity towards HCV-positive sera” value is on record as “little or no difference is observed in reactivity”. Also, the “optical density at 492 nm” value (Table 5, serum A8, 1/10,000) worked out at 525 OD × 10^3. The “optical density at 492 nm” value (Table 5, serum A 9, 1/1000) is on record as 2059 OD × 10^3. Further, under “Table 5, serum A 9, 1/10,000”, the “optical density at 492 nm” value turned out to be 275 OD × 10^3. Further, the “optical density at 492 nm” value (Table 5, serum A10, 1/10,000) is 1215 OD × 10^3. Further, the “optical density at 492 nm” value (Table 5, serum A11, 1/10,000) turned out to be 321 OD × 10^3. For the same substance, the “optical density at 492 nm” value (Table 5, serum A12, 1/10,000) is 823 OD × 10^3. For the same substance, the “optical density at 492 nm” value (Table 5, serum A13, 1/10,000) is 1061 OD × 10^3. The “optical density at 492 nm” value (Table 5, serum A14, 1/1000) was determined as 539 OD × 10^3. Further, the “optical density at 492 nm” value (Table 5, serum A14, 1/10,000) is recorded as 65 OD × 10^3. Also, the “optical density at 492 nm” value (Table 5, serum A15, 1/10,000) came out at 905 OD × 10^3. Also, the “optical density at 492 nm” value (Table 5, serum A16, 1/10,000) turned out to be 2003 OD × 10^3. Also, the “optical density at 492 nm” value (Table 5, serum A19, 1/10,000) stood at 446 OD × 10^3. The “optical density at 492 nm” value (Table 5, serum A20, 1/10,000) is on record as 2338 OD × 10^3. For the same substance, the “optical density at 492 nm” value (Table 5, serum A21, 1/1000) is reported as 652 OD × 10^3. The “optical density at 492 nm” value (Table 5, serum A21, 1/10,000) was 90 OD × 10^3. The “optical density at 492 nm” value (Table 5, serum A22, 1/1000) is 702 OD × 10^3. Also, the “optical density at 492 nm” value (Table 5, serum A22, 1/10,000) was found to be 102 OD × 10^3. Under “Table 5, serum A23, 1/10,000”, the “optical density at 492 nm” value was 557 OD × 10^3.

These data come from US6235284A, “Synthetic polypeptides belonging to the hepatitis C virus (HCV) and which can be used especially for detecting the latter” (Bio Merieux, priority 1992, dated 2001).
